The numbers were not newly measured in patent publication US8178516B2, “Compositions and method for treatment of chronic inflammatory diseases” (Sylvan Labs, LLC, priority 1992, dated 2012), which cites them from elsewhere.

The subject of data set [1] is plasma cysteine, plasma glutathione and red blood cell glutathione. As to conditions: in vivo.
Data set [2] has as its system myocardial glutathione. The note with it: subsequent to experimental ischemia and reperfusion.

For the compound `CC(=O)N[C@@H](CS)C(=O)O` [N-acetylcysteine], in data set [1], the “levels of plasma cysteine, plasma glutathione and red blood cell glutathione” value is listed as “increase”. Besides, the “increase in myocardial glutathione” value in data set [2] is on record as 100 fold.
